In patent US8552063B2, “Composition for accelerated production of collagen” (E.S.L.I. Limited, priority 2008, dated 2013):

Test system: human dermal fibroblasts
Test: Collagen I secretion, CODTA combined with SDA (Example 3)
Type: cell-based
Details: in combination with Stearidonic Acid base; relative to diluent (vehicle) alone
Experimental: This example provides outline results of the effect of two test active ingredient mixes on collagen I secretion by human dermal fibroblasts. Human dermal fibroblasts (originally derived from explant cultures of normal human breast dermis) were cultured under standard conditions. Two test combinations of actives (CODTA's when combined with SDA) were initially screened for cytotoxicity before testing.
Collagen I levels were determined and are expressed as a percentage of the levels observed in samples from cultures treated with diluent (vehicle) alone.
Pepsin digests of both cell culture medium, and the cell culture surface (plate) from each treated culture well were analysed.

| SMILES | Percentage increase in collagen I secretion |
| --- | --- |
| CCCCC\C=C/C=C/C=C/CCCCCCC(=O)O [Calendic Acid, Calendic acid] | 187% |
| CCCCC\C=C/C=C/C=C\CCCCCCC(=O)O [Jacaric Acid, Jacaric acid] | 278% |
